We go through 7 molecules from ChEMBL document CHEMBL1127166, “The analgesic effect of epibatidine and isomers” (1993).

In general, ED50 refers to the dose at which the effect has come halfway, by size or by number of responders.

Each structure is given as a SMILES string.

What all share (format): functional
In assay [1] the test system is Mus musculus. Kind of assay: Tested for the maximum possible analgesic effect along with naloxone (10 mg/kg) after 15 min at subcutaneous dosage of 10000 ug/kg.
Assay [2] deals with Mus musculus. Kind of assay: Tested for the maximum possible analgesic effect along with naloxone (10 mg/kg) after 30 min at subcutaneous dosage of 10000 ug/kg.
Assay [3] deals with Mus musculus. Kind of assay: Tested for the maximum possible analgesic effect along with naloxone (10 mg/kg) after 5 min at subcutaneous dosage of 10000 ug/kg.
The subject of assay [4] is Mus musculus. Kind of assay: Tested for the maximum possible analgesic effect along with saline after 15 min at subcutaneous dosage of 10000 ug/kg.
Assay [5] deals with Mus musculus. Briefly: Tested for the maximum possible analgesic effect along with saline after 30 min at subcutaneous dosage of 1000-10000 ug/kg.
Assay [6] deals with Mus musculus. Kind of assay: Tested for the maximum possible analgesic effect along with saline after 30 min at subcutaneous dosage of 10000 ug/kg.
For assay [7], the system named is Mus musculus. Kind of assay: Tested for the maximum possible analgesic effect along with saline after 5 min at subcutaneous dosage of 10000 ug/kg.
Assay [8] has as its system Mus musculus. Kind of assay: Tested for the analgesic effect in the mouse tail-flick assay at 5 min after subcutaneous injection at dosage of 5-50 ug/kg.
Assay [9] deals with Mus musculus. Briefly: Tested for the maximum possible analgesic effect of epibatidine after 15 min in mouse tail-flick assay at subcutaneous dosage of 10 ug/kg. (In general: Hot-plate and tail-flick tests time the reaction to a heat stimulus.)
The test system of assay [10] is Mus musculus. Kind of assay: Tested for the maximum possible analgesic effect of epibatidine after 30 min in mouse tail-flick assay at subcutaneous dosage of 10 ug/kg.
Assay [11] relates to Mus musculus. Kind of assay: Tested for the maximum possible analgesic effect of epibatidine after 5 min in mouse tail-flick assay at subcutaneous dosage of 10 ug/kg.
Assay [12] deals with Mus musculus. Briefly: Tested for the analgesic effect in the mouse tail-flick assay at 5 min after subcutaneous injection at dosage of 10-50 ug/kg. Particulars: sc.
For assay [13], the system named is Mus musculus. Kind of assay: Tested for maximum possible of analgesic effect of epibatidine after 5 min in mouse tail-flick assay at subcutaneous dosage of 10 ug/kg.
In assay [14] the test system is Mus musculus. Briefly: Tested for the analgesic effect in the mouse tail-flick assay at 5 min after subcutaneous injection at dosage of 1000 ug/kg. Particulars: sc.
Assay [15] deals with Mus musculus. Briefly: Tested for the maximum possible analgesic effect of epibatidine after 30 min in mouse tail-flick assay at subcutaneous dosage of 1000 ug/kg.
In assay [16] the test system is Mus musculus. Briefly: Tested for the maximum possible analgesic effect of epibatidine after 5 min in mouse tail-flick assay at subcutaneous dosage of 1000 ug/kg.
Assay [17] relates to Mus musculus. Briefly: Tested for the maximum possible analgesic effect of epibatidine at 15 min in mouse tail-flick assay after subcutaneous dosage of 1000 ug/kg.
Assay [18] has as its system Mus musculus. Kind of assay: Tested for the maximum possible analgesic effect along with naloxone (10 mg/kg) after 15 min at subcutaneous dosage of 10 ug/kg.
The test system of assay [19] is Mus musculus. Kind of assay: Tested for the maximum possible analgesic effect along with naloxone (10 mg/kg) after 30 min at subcutaneous dosage of 10 ug/kg.
The test system of assay [20] is Mus musculus. Kind of assay: Tested for the maximum possible analgesic effect along with saline after 15 min at subcutaneous dosage of 10 ug/kg.
The subject of assay [21] is Mus musculus. Kind of assay: Tested for the maximum possible analgesic effect along with saline after 30 min at subcutaneous dosage of 10 ug/kg.
Assay [22] concerns Mus musculus. Kind of assay: Tested for the maximum possible analgesic effect along with saline after 5 min at subcutaneous dosage of 10 ug/kg.
The test system of assay [23] is Mus musculus. Kind of assay: Tested for the maximum possible analgesic effect along with naloxone (10 mg/kg) after 5 min at subcutaneous dosage of 10 ug/kg.
The subject of assay [24] is Mus musculus. Briefly: Tested for the analgesic effect in the mouse tail-flick assay at 5 min after subcutaneous injection at dosage of 50-1000 ug/kg. Particulars: sc.
Assay [25] relates to Mus musculus. Kind of assay: Tested for the maximum possible analgesic effect of epibatidine after 15 min in mouse tail-flick assay at subcutaneous dosage of 1000 ug/kg.

Consider `CN1CC[C@]23c4c5ccc(O)c4O[C@H]2[C@@H](O)C=C[C@H]3[C@H]1C5.CN1CC[C@]23c4c5ccc(O)c4O[C@H]2[C@@H](O)C=C[C@H]3[C@H]1C5.O=S(=O)(O)O`, for which the Max possible effect in assay [1] is recorded as 3%; in [2], 4%; in assay [3], 0%; in [4] it was 51%; in assay [5], 4524%; in [6] it was 94%. The molecule further returned a Max possible effect in assay [7] of 7%.
`Clc1ccc(C2CC3CCC2N3)cn1` (racemic) [EPIBATIDINE]: the median effective dose (ED50) in assay [8] stood at 10 µg/kg. The Max possible effect was 23% in assay [9], 5% in assay [10] and 47% in assay [11].
In assay [12], `CN1C2CCC1C(c1ccc(Cl)nc1)C2` (configuration not stated) yielded an ED50 of 9 µg/kg. For the same molecule, the Max possible effect in assay [9] is reported as 16%; in [10], 8%; in [11] it was 64%.
In turn, `Clc1ccc(C2CC3CCC2N3)cn1` (stereo in doubt; l-1) [EPIBATIDINE] showed an ED50 in assay [8] of 9 µg/kg. In addition, the Max possible effect in [13] worked out at 58%; in assay [9] it was 46%; in assay [10], 1%.
In [14], `CC(=O)N1C2CCC1C(c1ccc(Cl)nc1)C2` (configuration not stated) showed an ED50 greater than 1000 µg/kg. Also, the Max possible effect in assay [15] turned out to be 0%; in [16], 4%; in [17], 3%.
For `Clc1ccc(C2CC3CCC2N3)cn1` (stereo in doubt; d-1) [EPIBATIDINE], the ED50 in [8] (Mus musculus, Tail, sc, 5 min, read-out: ED50) is 7 µg/kg. In addition, the Max possible effect stood at 49% in assay [18]; 0% in assay [19]; 48% in assay [20]; 4% in assay [21]; 86% in assay [22]; 32% in assay [9]. In addition, the Max possible effect in assay [10] is 3%; in [11] it was 89%; in [23] it was 77%.
`Clc1ccc(C2CC3CCC2N3)cn1` (configuration not stated) [EPIBATIDINE] came in with a median effective dose (ED50) in assay [24] greater than 1000 µg/kg. Also, the Max possible effect in assay [25] is recorded as 10%; in assay [15], 11%; in assay [16] it was 5%.
